Assay results from the NIST ThermoML archive (doi:10.1016/j.jct.2006.11.003).
Numbers after ± are expanded uncertainties.

Assay: xn = mol fraction of the nth substance listed
Settings: 101 kPa, Liquid

Cc1ccccc1C [1,2-dimethylbenzene] + CN1CCCC1=O
Settings | mass density [kg/m3]
293.15 K, x1 = 0.0478 | 1024.81 ± 0.45
293.15 K, x1 = 0.0865 | 1018.48 ± 0.42
293.15 K, x1 = 0.1584 | 1006.82 ± 0.37
293.15 K, x1 = 0.2266 | 995.89 ± 0.36
293.15 K, x1 = 0.2714 | 988.75 ± 0.39
293.15 K, x1 = 0.3393 | 978.06 ± 0.44
293.15 K, x1 = 0.387 | 970.61 ± 0.47
293.15 K, x1 = 0.4321 | 963.63 ± 0.49
293.15 K, x1 = 0.5011 | 953.04 ± 0.54
293.15 K, x1 = 0.5668 | 943.08 ± 0.58
293.15 K, x1 = 0.6297 | 933.64 ± 0.61
293.15 K, x1 = 0.7099 | 921.74 ± 0.66
293.15 K, x1 = 0.7859 | 910.6 ± 0.7
293.15 K, x1 = 0.8577 | 900.18 ± 0.74
293.15 K, x1 = 0.9388 | 888.55 ± 0.79
293.15 K, x1 = 1 | 879.84 ± 0.82
303.15 K, x1 = 0.0565 | 1014.2 ± 0.4
303.15 K, x1 = 0.1122 | 1005.19 ± 0.37
303.15 K, x1 = 0.1895 | 992.78 ± 0.37
303.15 K, x1 = 0.2467 | 983.7 ± 0.41
303.15 K, x1 = 0.3239 | 971.56 ± 0.46
303.15 K, x1 = 0.3967 | 960.27 ± 0.51
303.15 K, x1 = 0.4565 | 951.08 ± 0.54
303.15 K, x1 = 0.5127 | 942.54 ± 0.58
303.15 K, x1 = 0.5655 | 934.58 ± 0.61
303.15 K, x1 = 0.6251 | 925.68 ± 0.64
303.15 K, x1 = 0.7076 | 913.5 ± 0.69
303.15 K, x1 = 0.7626 | 905.46 ± 0.72
303.15 K, x1 = 0.8498 | 892.86 ± 0.77
303.15 K, x1 = 0.9049 | 884.97 ± 0.8
303.15 K, x1 = 0.9639 | 876.58 ± 0.84
303.15 K, x1 = 1 | 871.48 ± 0.86
313.15 K, x1 = 0.0485 | 1006.39 ± 0.37
313.15 K, x1 = 0.0922 | 999.35 ± 0.35
313.15 K, x1 = 0.1795 | 985.39 ± 0.4
313.15 K, x1 = 0.2368 | 976.31 ± 0.44
313.15 K, x1 = 0.3036 | 965.84 ± 0.48
313.15 K, x1 = 0.3679 | 955.86 ± 0.52
313.15 K, x1 = 0.4285 | 946.56 ± 0.56
313.15 K, x1 = 0.4894 | 937.31 ± 0.6
313.15 K, x1 = 0.5375 | 930.05 ± 0.63
313.15 K, x1 = 0.6034 | 920.22 ± 0.67
313.15 K, x1 = 0.673 | 909.94 ± 0.71
313.15 K, x1 = 0.7355 | 900.8 ± 0.74
313.15 K, x1 = 0.8196 | 888.65 ± 0.79
313.15 K, x1 = 0.8767 | 880.48 ± 0.82
313.15 K, x1 = 0.9289 | 873.06 ± 0.85
313.15 K, x1 = 1 | 863.03 ± 0.89
323.15 K, x1 = 0.0478 | 997.82 ± 0.35
323.15 K, x1 = 0.1014 | 989.16 ± 0.39
323.15 K, x1 = 0.1603 | 979.74 ± 0.43
323.15 K, x1 = 0.2364 | 967.69 ± 0.48
323.15 K, x1 = 0.3026 | 957.34 ± 0.52
323.15 K, x1 = 0.3575 | 948.83 ± 0.55
323.15 K, x1 = 0.4244 | 938.56 ± 0.59
323.15 K, x1 = 0.4915 | 928.37 ± 0.63
323.15 K, x1 = 0.5582 | 918.35 ± 0.67
323.15 K, x1 = 0.6217 | 908.9 ± 0.71
323.15 K, x1 = 0.6735 | 901.26 ± 0.74
323.15 K, x1 = 0.7536 | 889.56 ± 0.79
323.15 K, x1 = 0.8206 | 879.9 ± 0.82
323.15 K, x1 = 0.8728 | 872.43 ± 0.85
323.15 K, x1 = 0.9511 | 861.36 ± 0.9
323.15 K, x1 = 1 | 854.51 ± 0.93
333.15 K, x1 = 0.0579 | 986.94 ± 0.4
333.15 K, x1 = 0.1023 | 979.83 ± 0.43
333.15 K, x1 = 0.1814 | 967.25 ± 0.48
333.15 K, x1 = 0.2556 | 955.59 ± 0.52
333.15 K, x1 = 0.3135 | 946.59 ± 0.56
333.15 K, x1 = 0.3815 | 936.11 ± 0.6
333.15 K, x1 = 0.4478 | 926.02 ± 0.64
333.15 K, x1 = 0.5014 | 917.94 ± 0.68
333.15 K, x1 = 0.5654 | 908.37 ± 0.71
333.15 K, x1 = 0.6122 | 901.45 ± 0.74
333.15 K, x1 = 0.6632 | 893.96 ± 0.77
333.15 K, x1 = 0.8105 | 872.67 ± 0.85
333.15 K, x1 = 0.8744 | 863.57 ± 0.89
333.15 K, x1 = 0.9214 | 856.93 ± 0.92
333.15 K, x1 = 0.9632 | 851.06 ± 0.94
333.15 K, x1 = 1 | 845.91 ± 0.96
343.15 K, x1 = 0.0462 | 979.94 ± 0.43
343.15 K, x1 = 0.1045 | 970.59 ± 0.46
343.15 K, x1 = 0.1614 | 961.55 ± 0.5
343.15 K, x1 = 0.2153 | 953.05 ± 0.53
343.15 K, x1 = 0.2864 | 941.94 ± 0.58
343.15 K, x1 = 0.3576 | 930.94 ± 0.62
343.15 K, x1 = 0.4102 | 922.9 ± 0.66
343.15 K, x1 = 0.4828 | 911.91 ± 0.7
343.15 K, x1 = 0.5477 | 902.2 ± 0.74
343.15 K, x1 = 0.6065 | 893.5 ± 0.77
343.15 K, x1 = 0.6735 | 883.68 ± 0.81
343.15 K, x1 = 0.7533 | 872.13 ± 0.86
343.15 K, x1 = 0.8095 | 864.07 ± 0.89
343.15 K, x1 = 0.8745 | 854.83 ± 0.93
343.15 K, x1 = 0.9407 | 845.51 ± 0.96
343.15 K, x1 = 1 | 837.23 ± 1
353.15 K, x1 = 0.0475 | 970.95 ± 0.46
353.15 K, x1 = 0.1037 | 961.94 ± 0.5
353.15 K, x1 = 0.1582 | 953.26 ± 0.53
353.15 K, x1 = 0.2167 | 944.03 ± 0.57
353.15 K, x1 = 0.2633 | 936.72 ± 0.6
353.15 K, x1 = 0.34 | 924.83 ± 0.65
353.15 K, x1 = 0.4067 | 914.62 ± 0.69
353.15 K, x1 = 0.4529 | 907.6 ± 0.72
353.15 K, x1 = 0.5184 | 897.76 ± 0.76
353.15 K, x1 = 0.5689 | 890.24 ± 0.79
353.15 K, x1 = 0.6322 | 880.91 ± 0.82
353.15 K, x1 = 0.7097 | 869.62 ± 0.87
353.15 K, x1 = 0.7859 | 858.64 ± 0.91
353.15 K, x1 = 0.8511 | 849.36 ± 0.95
353.15 K, x1 = 0.9354 | 837.48 ± 1
353.15 K, x1 = 1 | 828.47 ± 1
